Measured values reported in EP2165709B1, “Pharmaceutical compositions comprising a lysine based compound and an HIV antiviral or antiretroviral agent” (Ambrilia Biopharma Inc., priority 2004, dated 2006).
Where two headings read alike, the source gives them in different places.

How the values were obtained:
[1] = Bioavailability: plasma concentration after oral administration to rats; format: in vivo, male Sprague-Dawley rats; details: rat; for Cmax / Tmax: male, Sprague-Dawley, plasma, vehicle Mix; for Cmax / Tmax / AUC / delivery of PL-100 and PL-337 compared to non-aqueous formulations of PL-100 and PL-337: 50 mg/Kg po; for delivery of PL-100 and PL-337 compared to non-aqueous formulations of PL-100 and PL-337: aqueous dosing; for administered compound detected in the blood samples: po, delivered as aqueous solutions, suggests rapid metabolism to parent drugs
Procedure: To assess the extent of in vivo cleavage of the phosphate group from the putative compounds, PL-100, PL-462 (based on PL-100), PL-337 and PL-515 (based on PL-337) compounds were administered po (50 mg/kg) to male Sprague-Dawley rats and their plasma concentration measured at different time intervals post-administration. All test articles (PL-100, PL-462, PL-337 and PL-515) were prepared in different vehicle at the final concentration of 25 mg/mL. The vehicle composition is as follows: (1) 20% ethanol; 50% propylene glycol; 0.05% w/v Tween 20 and water (Mix); (2) PBS buffer (PBS). Test articles were administered to male Sprague-Dawley rats at a single oral dose of 50 mg/kg. Each article was tested in three rats. Blood samples (0.2-0.3 mL) were collected at the post-dose time of 10, 20, 40, 60,120, 180 and 360 minutes. The harvested blood was centrifuged to isolate plasma. The resulting plasma was separated and stored at -70°C. Plasma samples together with standards and quality control samples were treated to precipitate proteins, then analyzed by HPLC-MS, for the presence of PL-462, PL-100, PL-515 and PL-337.

[2] = Partition coefficient (LogP), octanol / phosphate buffer pH 7.4; format: physicochemical; details: octanol and phosphate buffer pH 7.4 (0.04 M KHPO4), LC-MS detection
From the text: The concentration of the compounds in the phases was detected by LC-MS.

[3] = vehicle Mix (20% ethanol; 50% propylene glycol; 0.05% w/v Tween 20 and water)
[4] = vehicle PBS, parent drug (PL-100 or PL-337) detected in plasma

| Cmax [1] | Tmax [1] | AUC [1, 3] | logP ([2]; read-out: LogP) | delivery of PL-100 and PL-337 compared to non-aqueous formulations of PL-100 and PL-337 [1] | administered compound detected in the blood samples [1] | logP [2] | Compound | AUC [1, 4] |
| --- | --- | --- | --- | --- | --- | --- | --- | --- |
| 498 ± 203 nM | 40 min | 0.675 ± 0.171 µg/hr*ml | 3.6 | – | – | – | COC(=O)N[C@H](C(=O)NCCCC[C@@H](CO)N(CC(C)C)S(=O)(=O)c1ccc(N)cc1)C(c1ccccc1)c1ccccc1 [PL-100, (1S,5S)-(1-{5-[(4-amino-benzenesulfonyl)-isobutyl-amino]-6-hydroxy-hexylcarbamoyl}-2,2-diphenyl-ethyl)-carbamic acid methyl ester] | – |
| 681 ± 131 nM | 60 min | 1.180 ± 0.196 µg/hr*ml | – | – | – | – | COC(=O)N[C@H](C(=O)NCCCC[C@@H](CO)N(CC(C)C)S(=O)(=O)c1ccc(N)c(F)c1)C(c1ccccc1)c1ccccc1 [PL-337, (1-{5-[(4-amino-3-fluoro-benzenesulfonyl)-isobutyl-amino]-6-hydroxy-hexylcarbamoyl}-2,2-diphenyl-ethyl)-carbamic acid methyl ester] | – |
| – | – | – | -1.2 | – | – | – | COC(=O)N[C@H](C(=O)NCCCC[C@@H](COP(=O)(O)O)N(CC(C)C)S(=O)(=O)c1ccc(N)cc1)C(c1ccccc1)c1ccccc1 [PL-461, (1S,5S)-(1-{5-[(4-amino-benzenesulfonyl)-isobutyl-amino]-6-phosphonooxy-hexylcarbamoyl}-2,2-diphenyl-ethyl)-carbamic acid methyl ester] | – |
| – | – | – | – | equivalent to slightly superior | None | -1.2 | COC(=O)N[C@H](C(=O)NCCCC[C@@H](COP(=O)(O)O)N(CC(C)C)S(=O)(=O)c1ccc(N)cc1)C(c1ccccc1)c1ccccc1.[Na] [PL-462, (1S,5S)-(1-{5-[(4-amino-benzenesulfonyl)-isobutyl-amino]-6-phosphonooxy-hexylcarbamoyl}-2,2-diphenyl-ethyl)-carbamic acid methyl ester sodium salt] | 0.816 ± 0.295 (PL-100, detected) µg/hr*ml |
| – | – | – | -0.75 | equivalent to slightly superior | None | – | COC(=O)N[C@H](C(=O)NCCCC[C@@H](COP(=O)(O)O)N(CC(C)C)S(=O)(=O)c1ccc(N)c(F)c1)C(c1ccccc1)c1ccccc1 [PL-515, (1S,5S)-(1-{5-[(4-amino-3-fluoro-benzenesulfonyl)-isobutyl-amino]-6-phosphonooxy-hexylcarbamoyl}-2,2-diphenyl-ethyl)-carbamic acid methyl ester] | 1.075 ± 0.625 (PL-337, detected) µg/hr*ml |
